The subject of series [1] is MIP 101 human colon tumor xenograft. Kind of series: Subcutaneous MIP 101 colon tumor model in athymic nude mice. Type of series: in vivo. The following applies: for fate of the animals: all animals. From the text:
All cell lines that are used in animal studies are free of Mycoplasma contamination (Rapid Detection System by Gen-Probe, Inc., San Diego, Calif.) and viral contamination (MAP testing by MA BioServices, Inc., Rockville, Md.). The HCT-15 human colon tumor cell line is purchased from the American Type Culture Collection, Rockville, Md., Accession Number ATCC CCL 225. The MIP 101 human colon tumor cell line is obtained from Dr. R. Kramer (Bristol Meyers Squibb) and was previously described (Niles R M, et al. Cancer Invest. 1987;5(6):545-52). These cells are Pgp-1 (human Pgp) overexpressors, making the cells resistant to paclitaxel. All cell lines are propagated and expanded in RPMI 1640 medium containing 10% heat-inactivated FBS (Life Technologies, Grand Island, N.Y.). Cell expansions for implantation are performed in T225 tissue culture flasks. Cells are harvested at 70-90% confluency, washed once with HBSS containing 10% FBS, and are suspended in plain HBSS.
Outbred athymic (nu/nu) female mice (“Hsd:Athymic Nude-nu” from Harlan Sprague Dawley, Indianapolis, Ind.) are anesthetized with Metofane (Mallinckrodt Veterinary, Inc., Mundelein, Ill.,). A cell suspension (100 μL) containing 1×10^6 cells is then injected sc into the right axillary (lateral) region of each animal. Tumors are allowed to grow until a volume of approximately 100 mm^3 was achieved. At this point, mice bearing tumors are sorted into groups of eight for the study. The sorting process produced groups balanced with respect to mean and range of tumor size.
Discodermolide is isolated from the sponge Discodermia dissoluta using the methods of (Gunasekera S P, et al. supra). Multiple batches of compound of similar purity (all>95% pure, as determined by mass spectrometry, and nuclear magnetic resonance analysis) are used throughout the various studies. Solid discodermolide is dissolved in pure ethanol to create a stock solution which is diluted just before dosing with Cremophor EL (Crm) and D5W to a final concentration of 16.7% Cremophor EL, 8.3% ethanol and 75% D5W. The compound is administered intravenously (iv). In the first study discodermolide is tested against both tumors at five different dosing schedules: (i.) 30 mg/kg dosed as two 15 mg/kg injections on day 1 of the experiment, (ii.) 30 mg/kg dosed as three 10 mg/kg injections on days 1, 2, and 3, (iii.) 15 mg/kg dosed as a single injection on day 1, (iv.) 20 mg/kg dosed as a 15 mg/kg injection on day 1, followed by a 5 mg/kg injection on day 11, and (v.) 10 mg/kg dosed as a 7.5 mg/kg injection on day 1 followed by a 2.5 mg/kg injection on day 11. In the second study discodermolide is dosed as one injection on the first day of the experiment, at 2.5 mg/kg, 5 mg/kg, 7.5 mg/kg, 10 mg/kg, 12.5 mg/kg, or 15 mg/kg. In addition the 7.5 mg/kg injection on day 1 followed by a 2.5 mg/kg injection on day 11 is repeated from the first study. The actual doses, regimens and routes of administration used for the specific models are discussed in each section separately. Positive control animals receive clinical formulations of paclitaxel (TAXOL) diluted 4-fold with D5W and administered iv once daily for five consecutive days. Vehicle control for paclitaxel is administered according to paclitaxel's schedule. In the first study vehicle controls for discodermolide (16.7% Cremophor EL, 8.3% ethanol and 75% D5W) are administered as three daily injections on days 1, 2, and 3, or as two injections on days 1, and 11. In the second study vehicle control for discodermolide is administered as a single injection on day 1.
Tumors are measured, and individual animal body weights are recorded once weekly. Standard experiments are conducted for 3 full weeks from the initial dosing.
Antitumor activity is expressed as % T/C (comparing Δ tumor volumes for treatment group to vehicle control group). […]

Another series relates to Raf-1. Kind of series: Western blot, Raf-1 phosphorylation. Type of series: cell-based, human. As to the method:
Cells are plated at a density of 1.5×10^6 cells per 100 mm plate. The next day cells are treated with vehicle control (0.1% DMSO) or test compound for 24 h. Cells are harvested by washing monolayers twice with PBS, then lysing with 300 ul of lysis buffer[20 mM Tris (pH 8.0), […], 100 mM NaCl, 0.5% NP40, 0.0125% DOC, 2.5% glycerol, 1 mM vanadate, 25 mM sodium fluoride and protease inhibitor cocktail (1:500 dilution, Sigma)]. Lysates were spun at 12,000× g and the supernatant transferred to a new tube. Protein concentration of the lysates is determined using BCA protein assay Reagent (Pierce). Samples (75 μg) are resolved by SDS-PAGE on a 7.5% or 14% tris-glycine gel for Raf-1 and Bcl-xL, respectively, and transferred to nitrocellulose. Immunodetection is performed as described by Amersham Vistra Fluorescence Western blotting Kit directions with the following modifications: the membrane is blocked with 5% milk (Carnation Non-Fat Dry Milk) in buffer containing 20 mM Tris-HCl (pH=7.4), 100 mM NaCl, and 0.2% Tween 20 (TBST) overnight and is subsequently incubated for 2 h with primary antibody (Santa Cruz C-12 for Raf-1 and Santa Cruz H-62 for Bcl-xL), followed by fluorescein-linked anti-rabbit Ig in 5% milk and anti-fluorescein alkaline phosphatase conjugate in TBST at 1:500 and 1:2000 dilutions, respectively. A Storm 860 (Molecular Dynamics) is used to detect fluorescent product according to the manufacturer's instructions.
In general terms: Immunoblotting shows a protein as a band on a membrane.

Setting [2] is: first study, 7.5 mg/kg day 1 + 2.5 mg/kg day 11.
The mark [3] stands for this setting: first study, discodermolide iv single 15 mg/kg injection on day 1.
Where [4] appears, read: first study, two 15 mg/kg injections on day 1 (30 mg/kg total).
[5] abbreviates: second study, 7.5 mg/kg day 1 + 2.5 mg/kg day 11.
Setting [6] is: MDA-MB-435 cells, 24 hour treatment.

The term T/C denotes the result in the treated group divided by that in the control group, in per cent.

For `C=C/C=C\[C@H](C)[C@H](OC(N)=O)[C@@H](C)[C@H](O)[C@@H](C)C/C(C)=C\[C@H](C)[C@@H](O)[C@@H](C)/C=C\[C@@H](O)C[C@@H]1OC(=O)[C@H](C)[C@@H](O)[C@H]1C` [discodermolide, (+)-Discodermolide], the “inhibition of tumor growth (in words)” value in series [1] (MIP 101 xenograft, athymic nude mice) was “statistically significant (p<0.01) and reproducible inhibition of tumor growth”. Further, the T/C is 38% in series [1] (setting [2]); 36% in series [1] (setting [3]); 24% in series [1] (setting [4]); 35% in series [1] (setting [5]); 59% in series [1] (second study, single injection 2.5 mg/kg day 1); 57% in series [1] (second study, single injection 5 mg/kg day 1). For the same compound, the T/C came out at 46% in series [1] (second study, single injection 7.5 mg/kg day 1); 37% in series [1] (second study, single injection 10 mg/kg day 1); 22% in series [1] (second study, single injection 12.5 mg/kg day 1); 18% in series [1] (second study, single injection 15 mg/kg day 1). Further, the body weight loss is 21.3% in series [1] (setting [2]); 18.9% in series [1] (setting [3]); 23.4% in series [1] (setting [4]); 11.4% in series [1] (setting [5]); 7.9% in series [1] (second study, single injection 2.5 mg/kg); 10.2% in series [1] (second study, single injection 5 mg/kg). Moreover, the body weight loss in series [1] (second study, single injection 7.5 mg/kg) was 13.2%; in series [1] (second study, single injection 10 mg/kg) it was 18.7%; in series [1] (second study, single injection 12.5 mg/kg), 15.5%; in series [1] (second study, single injection 15 mg/kg), 11.7%. Besides, the “fate of the animals” value is “sacrificed in the beginning of the third week of the experiment due to the excessive body weight loss” in series [1] (first study, 15 mg/kg day 1 + 5 mg/kg day 11) and “die on day 5 of the experiment” in series [1] (first study, 30 mg/kg as three 10 mg/kg injections on days 1, 2, 3). Also, in series [1] (setting [5]), the deaths entry is “One animal in that group dies from apparent drug toxicity”. Further, the Raf-1 phosphorylation entry is recorded as “phosphorylated” in the series on Raf-1 (1A9 parental cells); “phosphorylated” in the series with Raf-1 (A549 cells, 24 hour treatment); “phosphorylated” in the series on Raf-1 (setting [6]); “phosphorylated” in the series with Raf-1 (PTX-22 cells).

For the compound `CC(=O)O[C@H]1C(=O)[C@@]2(C)[C@H]([C@H](OC(=O)c3ccccc3)[C@]3(O)C[C@H](OC(=O)[C@H](O)[C@@H](NC(=O)c4ccccc4)c4ccccc4)C(C)=C1C3(C)C)[C@]1(OC(C)=O)CO[C@@H]1C[C@@H]2O` [paclitaxel, reference compound], the T/C in series [1] (first study, paclitaxel 15 mg/kg daily for the first 5 days) was determined as 82%; in series [1] (second study, paclitaxel iv once daily for five days, p<0.01), 54%. The Raf-1 phosphorylation entry with Raf-1 (1A9 parental cells) is recorded as “phosphorylated”; in the series on Raf-1 (A549 cells, 24 hour treatment), “phosphorylated”; in the series with Raf-1 (setting [6]), “phosphorylated”; in the series on Raf-1 (PTX-22 cells), “not observed”.
